From patent publication US11207312B2, “Metallo-beta-lactamase inhibitors and methods of use thereof” (priority 2017, dated 2021)
Read-outs that look alike come from different tables or passages of the source.

What was measured:
[1] = test system: Serratia marcescens expressing IMP-1 (CL5741); format: cell-based; settings: with imipenem 1 μg/ml; 95% inhibition of bacterial growth
Summary of the method: (§1)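 Imipenem 1 μg/ml + inhibitor titration in cation-adjusted MHB (1.1× stock medium); overnight-cultured colonies suspended in saline, diluted 1:100. 35 °C, 22–24 h; absorbance read. MITC95 = lowest compound conc giving 95% growth inhibition.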

[2] = test system: Escherichia coli expressing NDM-1 (CLB30016); format: cell-based; settings: with imipenem 1 μg/ml; 95% inhibition of bacterial growth
Summary of the method: as §1

[3] = test system: Klebsiella pneumoniae expressing VIM-1 (IHMA599644); format: cell-based; settings: with imipenem 1 μg/ml; 95% inhibition of bacterial growth
Summary of the method: as §1

NDM-1 = NDM-1 (Klebsiella pneumoniae, UniProt C7C422); experiment: biochemical; format: biochemical; settings: CCF2-FA fluorescence assay, 2 hours at 25° C.
Summary of the method: (§2)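 In pH 7 phosphate buffer (100 mM) with 10 μM ZnSO4 and 0.005% Tween-20, CCF2-FA hydrolysis (1.25 μM) by 1 pM NDM-1, 2 pM IMP-1 or 30 pM VIM-1 was run 2 h at 25° C with inhibitor from 20 to 0.00063 μM. Ex 405/em 460 nm signal fitted to a 4-parameter curve for IC50.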

[4] = test system: P. aeruginosa MB9799 (efflux-, IMP-1 plasmid); format: cell-based, Pseudomonas aeruginosa; settings: efflux − (MB9799) strain; imipenem at 2 μg/mL; in the presence of a class A, C, D serine β-lactamase inhibitor closely related to relebactam
Summary of the method: (§3)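 PAO1-derived isogenic pair (oprD+, inducible AmpC), efflux+ MB5919 or efflux− MB5890 parent, carrying an electroporated IMP-1 plasmid from a clinical isolate. Microbroth MIC with fixed imipenem and/or ceftazidime (usually CLSI breakpoint) plus fixed class A/C inhibitor; MBL inhibitor serially titrated, concentration restoring susceptibility recorded.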

IMP-1 = IMP-1 (Serratia marcescens, UniProt P52699); experiment: biochemical; settings: CCF2-FA fluorescence assay, 2 hours at 25° C.; read-out: IMP1 IC50
Summary of the method: as §2

VIM-1 = VIM-1 (Pseudomonas aeruginosa (strain ATCC 15692 / DSM 22644 / CIP 104116 / JCM 14847 / LMG 12228 / 1C / PRS 101 / PAO1), UniProt A0A0F7KYQ8); experiment: biochemical; settings: CCF2-FA fluorescence assay, 2 hours at 25° C.; read-out: VIM1 IC50
Summary of the method: as §2

VIM-2 = VIM-2 (Escherichia coli, UniProt Q5U7L7); experiment: biochemical
[5] = test system: P. aeruginosa MB9798 (efflux+, IMP-1 plasmid); settings: for MB9798 MITC95 P. aeruginosa uM Efflux WT: efflux + (MB9798) strain, imipenem at 2 μg/mL, in the presence of a class A, C, D serine β-lactamase inhibitor closely related to relebactam; for Efflux ratio: fold difference between efflux+ (MB9798) and efflux− (MB9799) strains
Summary of the method: as §3

[6] = CCF2-FA fluorescence assay, read-out: VIM2 IC50

Chain of NDM-1 (C7C422 whole entry, looked up, species assumed): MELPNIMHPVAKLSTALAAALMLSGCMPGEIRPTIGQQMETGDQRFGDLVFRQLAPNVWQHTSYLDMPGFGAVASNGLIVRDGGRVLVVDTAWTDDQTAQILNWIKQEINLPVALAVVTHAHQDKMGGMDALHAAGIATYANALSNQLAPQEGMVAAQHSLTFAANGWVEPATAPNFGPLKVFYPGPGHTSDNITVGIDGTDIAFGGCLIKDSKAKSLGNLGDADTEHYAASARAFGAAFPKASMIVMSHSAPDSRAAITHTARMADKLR
Chain of IMP-1 (P52699 whole entry, looked up, species assumed): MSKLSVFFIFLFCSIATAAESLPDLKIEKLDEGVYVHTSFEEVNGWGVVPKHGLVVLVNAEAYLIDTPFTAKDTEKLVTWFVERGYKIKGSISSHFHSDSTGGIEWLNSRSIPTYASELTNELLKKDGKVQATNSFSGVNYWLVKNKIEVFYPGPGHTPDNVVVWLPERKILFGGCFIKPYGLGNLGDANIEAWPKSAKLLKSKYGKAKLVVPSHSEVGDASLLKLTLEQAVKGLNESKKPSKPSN

## NCCC1CN(c2ccc(S(=O)(=O)NC[C@H](O)CN)c(S(N)(=O)=O)c2-c2nn[nH]n2)C1 [Example 144, (R)-N1-(3-amino-2-hydroxypropyl)-4-(3-(2-aminoethyl)azetidin-1-yl)-3-(2H-tetrazol-5-yl)benzene-1,2-disulfonamide]
[1]
  CL5741 S. marcescens MITC95 IMP: 6.25 µM
[2]
  CLB30016 E. coli MITC95 NDM: 3.13 µM
[3]
  IHMA599644 K. pneumoniae MITC95 VIM: 3.13 µM
NDM-1
  IC50: 111 nM
[4]
  MB9799 MITC95 P. aeruginosa uM Efflux Mutant: 3.13 µM
IMP-1
  IC50: 89.6 nM
VIM-1
  IC50: 4.23 nM
VIM-2; [6]
  IC50: 200 nM
[5]
  MB9798 MITC95 P. aeruginosa uM Efflux WT: 12.50 µM
  Efflux ratio: 4.00

## CC1(C)CN(c2ccc(S(=O)(=O)NC[C@H](O)CN)c(S(N)(=O)=O)c2-c2nn[nH]n2)CCN1CCO [Example 173, (R)-N1-(3-amino-2-hydroxypropyl)-4-(4-(2-hydroxyethyl)-3,3-dimethylpiperazin-1-yl)-3-(2H-tetrazol-5-yl)benzene-1,2-disulfonamide]
[1]
  CL5741 S. marcescens MITC95 IMP: 3.13 µM
[2]
  CLB30016 E. coli MITC95 NDM: 1.56 µM
[3]
  IHMA599644 K. pneumoniae MITC95 VIM: 6.25 µM
NDM-1
  IC50: 19.8 nM
[4]
  MB9799 MITC95 P. aeruginosa uM Efflux Mutant: 1.56 µM
IMP-1
  IC50: 10.5 nM
VIM-1
  IC50: 13.7 nM
VIM-2; [6]
  IC50: 114 nM
[5]
  MB9798 MITC95 P. aeruginosa uM Efflux WT: 6.25 µM
  Efflux ratio: 4.00

## NCCN1CCN(c2ccc(S(=O)(=O)NC[C@H](O)CN)c(S(N)(=O)=O)c2-c2nnn[nH]2)CC1 [Example 51, (R)-N1-(3-amino-2-hydroxypropyl)-4-(4-(2-aminoethyl)piper-azin-1-yl)-3-(1H-tetrazol-5-yl)benzene-1,2-disulfonamide]
[1]
  CL5741 S. marcescens MITC95 IMP: 0.39 µM
[2]
  CLB30016 E. coli MITC95 NDM: 0.78 µM
[3]
  IHMA599644 K. pneumoniae MITC95 VIM: 0.78 µM
NDM-1
  IC50: 1.4 nM
[4]
  MB9799 MITC95 P. aeruginosa uM Efflux Mutant: 0.39 µM
IMP-1
  IC50: 1.92 nM
VIM-1
  IC50: 0.29 nM
VIM-2; [6]
  IC50: 3.07 nM
[5]
  MB9798 MITC95 P. aeruginosa uM Efflux WT: 0.78 µM
  Efflux ratio: 2.00

## NS(=O)(=O)c1c(S(=O)(=O)N[C@@H]2CCNC2)ccc(N2CC[C@@H](CO)C2)c1-c1nnn[nH]1 [Example 70, 4-[(3R)-3-(hydroxymethyl)pyrrolidin-1-yl]-N1-[(3R)-pyrrolidin-3-yl]-3-(1H-tetrazol-5-yl)benzene-1,2-disulfonamide]
[1]
  CL5741 S. marcescens MITC95 IMP: 3.91 µM
[2]
  CLB30016 E. coli MITC95 NDM: 3.91 µM
[3]
  IHMA599644 K. pneumoniae MITC95 VIM: 7.81 µM
NDM-1
  IC50: 0.45 nM
[4]
  MB9799 MITC95 P. aeruginosa uM Efflux Mutant: 1.95 µM
IMP-1
  IC50: 0.51 nM
VIM-1
  IC50: 0.57 nM
VIM-2; [6]
  IC50: 1.25 nM
[5]
  MB9798 MITC95 P. aeruginosa uM Efflux WT: 2.34 µM
  Efflux ratio: 1.20

## NS(=O)(=O)c1c(S(=O)(=O)N[C@@H]2CCNC2)ccc(N2CCN(CCO)CC2)c1-c1nnn[nH]1 [Example 102, 4-[4-(2-hydroxyethyl)piperazin-1-yl]-N1-[(3R)-pyrrolidin-3-yl]-3-(1H-tetrazol-5-yl)benzene-1,2-disulfonamide]
[1]
  CL5741 S. marcescens MITC95 IMP: 0.20 µM
[2]
  CLB30016 E. coli MITC95 NDM: 0.20 µM
[3]
  IHMA599644 K. pneumoniae MITC95 VIM: 3.13 µM
NDM-1
  IC50: 1.35 nM
[4]
  MB9799 MITC95 P. aeruginosa uM Efflux Mutant: 1.56 µM
IMP-1
  IC50: 2.07 nM
VIM-1
  IC50: 3.06 nM
VIM-2; [6]
  IC50: 7.94 nM
[5]
  MB9798 MITC95 P. aeruginosa uM Efflux WT: 3.13 µM
  Efflux ratio: 2.00

## C[C@H](CN)NS(=O)(=O)c1ccc(N2CCC(CO)CC2)c(-c2nnn[nH]2)c1S(N)(=O)=O [Example 46, (R)-N1-(1-aminopropan-2-yl)-4-(4-(hydroxymethyl)piperidin-1-yl)-3-(1H-tetrazol-5-yl)benzene-1,2-disulfonamide]
[1]
  CL5741 S. marcescens MITC95 IMP: 1.56 µM
[2]
  CLB30016 E. coli MITC95 NDM: 3.13 µM
[3]
  IHMA599644 K. pneumoniae MITC95 VIM: 6.25 µM
NDM-1
  IC50: 0.06 nM
[4]
  MB9799 MITC95 P. aeruginosa uM Efflux Mutant: 1.56 µM
IMP-1
  IC50: 0.12 nM
VIM-1
  IC50: 0.08 nM
VIM-2; [6]
  IC50: 0.32 nM
[5]
  MB9798 MITC95 P. aeruginosa uM Efflux WT: 1.56 µM
  Efflux ratio: 1.00

## NC[C@@H](O)CNS(=O)(=O)c1ccc(N2CCC(C(N)CO)CC2)c(-c2nn[nH]n2)c1S(N)(=O)=O (single isomer, unassigned) [Example 180]
[1]
  CL5741 S. marcescens MITC95 IMP: 0.78 µM
[2]
  CLB30016 E. coli MITC95 NDM: 0.39 µM
[3]
  IHMA599644 K. pneumoniae MITC95 VIM: 1.56 µM
NDM-1
  IC50: 5.73 nM
[4]
  MB9799 MITC95 P. aeruginosa uM Efflux Mutant: 0.78 µM
IMP-1
  IC50: 6.3 nM
VIM-1
  IC50: 0.44 nM
VIM-2; VIM2 IC50, CCF2-FA fluorescence assay
  IC50: 5.92 nM
[5]
  MB9798 MITC95 P. aeruginosa uM Efflux WT: 0.78 µM
  Efflux ratio: 1.00

## C[C@H](CN)NS(=O)(=O)c1ccc(N2CC[C@@H](CN)[C@@H](F)C2)c(-c2nn[nH]n2)c1S(N)(=O)=O (racemic) [Example 8]
[1]
  CL5741 S. marcescens MITC95 IMP: 0.39 µM
[2]
  CLB30016 E. coli MITC95 NDM: 0.20 µM
[3]
  IHMA599644 K. pneumoniae MITC95 VIM: 0.78 µM
NDM-1
  IC50: 0.19 nM
[4]
  MB9799 MITC95 P. aeruginosa uM Efflux Mutant: 0.39 µM
IMP-1
  IC50: 1.12 nM
VIM-1
  IC50: 0.07 nM
VIM-2; [6]
  IC50: 2.35 nM
[5]
  MB9798 MITC95 P. aeruginosa uM Efflux WT: 0.78 µM
  Efflux ratio: 2.00

## NCCNS(=O)(=O)c1ccc(N2CCC(O)(CN)CC2)c(-c2nn[nH]n2)c1S(N)(=O)=O [Example 17]
[1]
  CL5741 S. marcescens MITC95 IMP: 0.78 µM
[2]
  CLB30016 E. coli MITC95 NDM: 0.78 µM
[3]
  IHMA599644 K. pneumoniae MITC95 VIM: 1.56 µM
NDM-1
  IC50: 17 nM
[4]
  MB9799 MITC95 P. aeruginosa uM Efflux Mutant: 0.78 µM
IMP-1
  IC50: 26.9 nM
VIM-1
  IC50: 15.1 nM
VIM-2; [6]
  IC50: 64.6 nM
[5]
  MB9798 MITC95 P. aeruginosa uM Efflux WT: 1.56 µM
  Efflux ratio: 2.00

## NC[C@@H](O)CNS(=O)(=O)c1ccc(N2CC[C@@H](N)C2)c(-c2nn[nH]n2)c1S(N)(=O)=O [Example 125, N1-((R)-3-amino-2-hydroxypropyl)-4-((R)-3-aminopyrrolidin-1-yl)-3-(2H-tetrazol-5-yl)benzene-1,2-disulfonamide]
[1]
  CL5741 S. marcescens MITC95 IMP: 3.13 µM
[2]
  CLB30016 E. coli MITC95 NDM: 0.78 µM
[3]
  IHMA599644 K. pneumoniae MITC95 VIM: 1.56 µM
NDM-1
  IC50: 88.1 nM
[4]
  MB9799 MITC95 P. aeruginosa uM Efflux Mutant: 3.13 µM
IMP-1
  IC50: 61.4 nM
VIM-1
  IC50: 10.9 nM
VIM-2; [6]
  IC50: 53.9 nM
[5]
  MB9798 MITC95 P. aeruginosa uM Efflux WT: 6.25 µM
  Efflux ratio: 2.00

## NCCC1CCN(c2ccc(S(=O)(=O)NC[C@H](O)CN)c(S(N)(=O)=O)c2-c2nn[nH]n2)CC1 [Example 24, (R)-N^1-(3-amino-2-hydroxypropyl)-4-(4-(2-aminoethyl)piperidin-1-yl)-3-(2H-tetrazol-5-yl)benzene-1,2-disulfonamide]
[1]
  CL5741 S. marcescens MITC95 IMP: 3.13 µM
[2]
  CLB30016 E. coli MITC95 NDM: 1.56 µM
[3]
  IHMA599644 K. pneumoniae MITC95 VIM: 6.25 µM
NDM-1
  IC50: 5.09 nM
[4]
  MB9799 MITC95 P. aeruginosa uM Efflux Mutant: 1.56 µM
IMP-1
  IC50: 5.79 nM
VIM-1
  IC50: 0.45 nM
VIM-2; [6]
  IC50: 5.6 nM
[5]
  MB9798 MITC95 P. aeruginosa uM Efflux WT: 1.56 µM
  Efflux ratio: 1.00
